Test results reported in patent US11767310B2, “Nicotinamide RIPK1 inhibitors” (AbbVie Inc., priority 2021, dated 2023).
Like-named read-outs stand apart in the source and are kept apart here.

What was measured:
Experiment in all cases: Kinase binding screen
Settings in all cases: read-out: Percent Control at 100 nM Compound Concentration
NEK1 = NEK1 (Homo sapiens (Human), UniProt Q96PY6)
MAP4K5 = MAP4K5 (Homo sapiens (Human), UniProt Q9Y4K4)
VEGFR2 = VEGFR2 (Homo sapiens (Human), UniProt P35968)
PIP5K1C = PIP5K1C (Homo sapiens (Human), UniProt O60331)
LRRK2 = LRRK2 (Homo sapiens (Human), UniProt Q5S007)
LOK = LOK (Homo sapiens (Human), UniProt O94804)
CDK3 = CDK3 (Homo sapiens (Human), UniProt Q00526)
CDK3, sequence (Q00526 whole entry): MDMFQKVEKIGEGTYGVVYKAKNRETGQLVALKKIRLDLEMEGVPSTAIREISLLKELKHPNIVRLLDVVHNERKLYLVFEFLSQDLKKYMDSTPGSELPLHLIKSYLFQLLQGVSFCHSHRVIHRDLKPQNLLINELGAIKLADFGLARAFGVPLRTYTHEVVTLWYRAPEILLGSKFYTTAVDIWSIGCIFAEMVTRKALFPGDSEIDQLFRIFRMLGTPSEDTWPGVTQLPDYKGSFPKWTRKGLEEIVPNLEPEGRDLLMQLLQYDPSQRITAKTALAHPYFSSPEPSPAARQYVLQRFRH

MET = MET (Homo sapiens (Human), UniProt P08581)
MET, sequence (P08581 25-1390): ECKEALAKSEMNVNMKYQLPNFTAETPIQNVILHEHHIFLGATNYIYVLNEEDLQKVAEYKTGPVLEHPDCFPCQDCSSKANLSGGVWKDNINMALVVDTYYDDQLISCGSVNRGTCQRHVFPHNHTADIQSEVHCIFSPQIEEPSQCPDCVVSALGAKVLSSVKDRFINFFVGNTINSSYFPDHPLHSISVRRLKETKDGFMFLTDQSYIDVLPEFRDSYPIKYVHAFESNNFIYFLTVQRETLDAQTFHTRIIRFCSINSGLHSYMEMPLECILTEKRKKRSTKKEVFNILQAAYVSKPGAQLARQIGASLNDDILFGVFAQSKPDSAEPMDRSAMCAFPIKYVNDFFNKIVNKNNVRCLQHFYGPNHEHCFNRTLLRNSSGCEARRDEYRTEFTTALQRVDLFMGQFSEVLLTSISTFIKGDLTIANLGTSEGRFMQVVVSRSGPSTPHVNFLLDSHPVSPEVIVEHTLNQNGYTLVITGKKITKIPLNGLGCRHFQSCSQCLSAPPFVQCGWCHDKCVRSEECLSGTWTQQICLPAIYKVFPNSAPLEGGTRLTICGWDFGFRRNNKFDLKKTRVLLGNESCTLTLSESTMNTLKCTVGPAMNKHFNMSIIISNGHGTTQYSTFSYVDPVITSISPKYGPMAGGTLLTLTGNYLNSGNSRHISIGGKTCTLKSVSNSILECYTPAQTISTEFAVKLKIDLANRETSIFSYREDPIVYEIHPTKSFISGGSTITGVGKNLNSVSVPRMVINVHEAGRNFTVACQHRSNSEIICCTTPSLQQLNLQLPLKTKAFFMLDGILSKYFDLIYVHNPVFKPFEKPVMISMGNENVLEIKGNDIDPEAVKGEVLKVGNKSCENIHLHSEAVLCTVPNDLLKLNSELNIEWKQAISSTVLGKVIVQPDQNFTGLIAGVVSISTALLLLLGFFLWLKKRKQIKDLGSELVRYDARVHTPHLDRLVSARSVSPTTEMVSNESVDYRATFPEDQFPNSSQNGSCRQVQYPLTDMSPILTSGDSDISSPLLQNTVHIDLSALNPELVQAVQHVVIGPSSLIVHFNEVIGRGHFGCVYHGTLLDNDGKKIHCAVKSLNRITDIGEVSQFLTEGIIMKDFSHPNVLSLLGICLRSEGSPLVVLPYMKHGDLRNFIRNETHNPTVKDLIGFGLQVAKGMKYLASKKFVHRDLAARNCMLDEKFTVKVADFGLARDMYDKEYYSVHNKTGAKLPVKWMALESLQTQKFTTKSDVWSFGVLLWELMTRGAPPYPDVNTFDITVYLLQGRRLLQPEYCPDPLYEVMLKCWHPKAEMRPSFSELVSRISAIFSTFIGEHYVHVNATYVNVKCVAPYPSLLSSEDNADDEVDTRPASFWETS

CAMK1B = CAMK1B (Homo sapiens (Human), UniProt Q6P2M8)
FLT3(K663Q) = FLT3(K663Q) (Homo sapiens (Human), UniProt P36888, K663Q)
SRPK3 = SRPK3 (Homo sapiens (Human), UniProt Q9UPE1)
PAK4 = PAK4 (Homo sapiens (Human), UniProt O96013)
HPK1 = HPK1 (Homo sapiens (Human), UniProt Q92918)
HPK1, sequence (Q92918 whole entry): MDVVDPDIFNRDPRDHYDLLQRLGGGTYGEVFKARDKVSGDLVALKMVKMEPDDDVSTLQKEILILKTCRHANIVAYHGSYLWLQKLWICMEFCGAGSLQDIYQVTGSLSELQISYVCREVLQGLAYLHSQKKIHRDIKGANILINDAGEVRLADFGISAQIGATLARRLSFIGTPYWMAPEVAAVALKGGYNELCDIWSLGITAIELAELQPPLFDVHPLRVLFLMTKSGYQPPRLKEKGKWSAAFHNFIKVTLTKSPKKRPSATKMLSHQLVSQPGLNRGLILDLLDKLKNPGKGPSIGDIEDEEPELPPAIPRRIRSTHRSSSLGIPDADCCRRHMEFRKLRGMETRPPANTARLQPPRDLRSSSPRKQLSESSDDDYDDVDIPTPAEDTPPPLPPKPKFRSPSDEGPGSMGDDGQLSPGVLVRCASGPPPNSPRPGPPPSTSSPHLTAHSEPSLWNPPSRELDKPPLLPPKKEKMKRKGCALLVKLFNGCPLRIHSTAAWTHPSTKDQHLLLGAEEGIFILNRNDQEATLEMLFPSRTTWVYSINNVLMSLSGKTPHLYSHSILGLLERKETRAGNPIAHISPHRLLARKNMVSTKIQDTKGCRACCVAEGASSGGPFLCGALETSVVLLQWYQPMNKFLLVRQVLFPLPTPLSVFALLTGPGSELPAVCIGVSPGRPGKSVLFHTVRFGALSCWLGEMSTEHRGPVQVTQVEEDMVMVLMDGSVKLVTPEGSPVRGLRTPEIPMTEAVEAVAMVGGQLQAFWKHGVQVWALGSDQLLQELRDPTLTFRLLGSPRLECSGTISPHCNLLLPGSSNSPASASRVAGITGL

MAP3K1 = MAP3K1 (Homo sapiens (Human), UniProt Q13233)
ABL1-phosphorylated = ABL1-phosphorylated (Homo sapiens (Human), UniProt P00519)
CSK = CSK (Homo sapiens (Human), UniProt P41240)
EPHA4 = EPHA4 (Homo sapiens (Human), UniProt P54764)
SRC = SRC (Homo sapiens (Human), UniProt P12931)
PRKCE = PRKCE (Homo sapiens (Human), UniProt Q02156)
PRKCE, sequence (Q02156 whole entry): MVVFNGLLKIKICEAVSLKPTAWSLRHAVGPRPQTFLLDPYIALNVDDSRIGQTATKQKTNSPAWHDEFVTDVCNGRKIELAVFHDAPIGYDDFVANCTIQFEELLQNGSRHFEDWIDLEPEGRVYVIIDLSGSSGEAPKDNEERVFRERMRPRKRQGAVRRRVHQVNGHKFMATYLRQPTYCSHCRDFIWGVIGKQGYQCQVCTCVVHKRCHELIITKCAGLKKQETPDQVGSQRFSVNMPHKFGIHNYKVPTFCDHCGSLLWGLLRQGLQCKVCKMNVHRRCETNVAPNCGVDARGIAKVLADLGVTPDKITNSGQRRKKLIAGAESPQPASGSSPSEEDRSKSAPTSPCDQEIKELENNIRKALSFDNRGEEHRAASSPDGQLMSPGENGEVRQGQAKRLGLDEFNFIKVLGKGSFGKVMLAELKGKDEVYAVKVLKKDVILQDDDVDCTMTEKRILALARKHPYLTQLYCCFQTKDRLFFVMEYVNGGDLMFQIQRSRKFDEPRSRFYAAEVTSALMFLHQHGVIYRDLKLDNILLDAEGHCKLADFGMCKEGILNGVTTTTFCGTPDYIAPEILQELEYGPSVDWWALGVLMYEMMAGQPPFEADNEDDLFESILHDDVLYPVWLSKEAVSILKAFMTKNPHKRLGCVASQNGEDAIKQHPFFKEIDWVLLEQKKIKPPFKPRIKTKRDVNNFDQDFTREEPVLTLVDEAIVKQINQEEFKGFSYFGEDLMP

GRK3 = GRK3 (Homo sapiens (Human), UniProt P35626)
MKNK2 = MKNK2 (Homo sapiens (Human), UniProt Q9HBH9)
MKNK2, sequence (Q9HBH9 whole entry): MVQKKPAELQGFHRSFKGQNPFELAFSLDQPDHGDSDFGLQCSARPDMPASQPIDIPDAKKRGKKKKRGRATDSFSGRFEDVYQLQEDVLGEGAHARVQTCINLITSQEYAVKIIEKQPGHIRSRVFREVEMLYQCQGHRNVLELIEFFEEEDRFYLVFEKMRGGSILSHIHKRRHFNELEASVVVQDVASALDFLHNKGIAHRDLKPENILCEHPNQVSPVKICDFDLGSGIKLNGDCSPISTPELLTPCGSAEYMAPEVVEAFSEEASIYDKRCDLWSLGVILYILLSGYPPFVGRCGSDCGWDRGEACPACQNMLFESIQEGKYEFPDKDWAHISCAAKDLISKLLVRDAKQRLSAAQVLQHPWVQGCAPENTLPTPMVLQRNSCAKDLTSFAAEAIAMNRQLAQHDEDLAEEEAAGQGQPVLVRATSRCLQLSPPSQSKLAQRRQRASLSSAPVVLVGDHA

MEK2 = MEK2 (Homo sapiens (Human), UniProt P36507)
PRKD1 = PRKD1 (Homo sapiens (Human), UniProt Q15139)
BIKE = BIKE (Homo sapiens (Human), UniProt Q9NSY1)
ALK(C1156Y) = ALK(C1156Y) (Homo sapiens (Human), UniProt Q9UM73, C1156Y)
LRRK2(G2019S) = LRRK2(G2019S) (Homo sapiens (Human), UniProt Q5S007, G2019S)
CAMKK2 = CAMKK2 (Homo sapiens (Human), UniProt Q96RR4)
ERK1 = ERK1 (Homo sapiens (Human), UniProt P27361)
ERK1, sequence (P27361 whole entry): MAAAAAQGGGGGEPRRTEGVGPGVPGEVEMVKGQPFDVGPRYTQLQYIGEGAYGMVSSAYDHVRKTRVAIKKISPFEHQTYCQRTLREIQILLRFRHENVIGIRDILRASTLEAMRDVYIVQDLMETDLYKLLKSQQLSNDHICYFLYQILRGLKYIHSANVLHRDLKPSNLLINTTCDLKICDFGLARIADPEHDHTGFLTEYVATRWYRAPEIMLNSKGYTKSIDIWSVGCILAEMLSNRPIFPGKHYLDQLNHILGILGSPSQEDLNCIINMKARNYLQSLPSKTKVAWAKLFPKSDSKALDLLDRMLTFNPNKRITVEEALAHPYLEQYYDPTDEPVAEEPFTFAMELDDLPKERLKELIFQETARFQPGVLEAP

LZK = LZK (Homo sapiens (Human), UniProt O43283)
LZK, sequence (O43283 whole entry): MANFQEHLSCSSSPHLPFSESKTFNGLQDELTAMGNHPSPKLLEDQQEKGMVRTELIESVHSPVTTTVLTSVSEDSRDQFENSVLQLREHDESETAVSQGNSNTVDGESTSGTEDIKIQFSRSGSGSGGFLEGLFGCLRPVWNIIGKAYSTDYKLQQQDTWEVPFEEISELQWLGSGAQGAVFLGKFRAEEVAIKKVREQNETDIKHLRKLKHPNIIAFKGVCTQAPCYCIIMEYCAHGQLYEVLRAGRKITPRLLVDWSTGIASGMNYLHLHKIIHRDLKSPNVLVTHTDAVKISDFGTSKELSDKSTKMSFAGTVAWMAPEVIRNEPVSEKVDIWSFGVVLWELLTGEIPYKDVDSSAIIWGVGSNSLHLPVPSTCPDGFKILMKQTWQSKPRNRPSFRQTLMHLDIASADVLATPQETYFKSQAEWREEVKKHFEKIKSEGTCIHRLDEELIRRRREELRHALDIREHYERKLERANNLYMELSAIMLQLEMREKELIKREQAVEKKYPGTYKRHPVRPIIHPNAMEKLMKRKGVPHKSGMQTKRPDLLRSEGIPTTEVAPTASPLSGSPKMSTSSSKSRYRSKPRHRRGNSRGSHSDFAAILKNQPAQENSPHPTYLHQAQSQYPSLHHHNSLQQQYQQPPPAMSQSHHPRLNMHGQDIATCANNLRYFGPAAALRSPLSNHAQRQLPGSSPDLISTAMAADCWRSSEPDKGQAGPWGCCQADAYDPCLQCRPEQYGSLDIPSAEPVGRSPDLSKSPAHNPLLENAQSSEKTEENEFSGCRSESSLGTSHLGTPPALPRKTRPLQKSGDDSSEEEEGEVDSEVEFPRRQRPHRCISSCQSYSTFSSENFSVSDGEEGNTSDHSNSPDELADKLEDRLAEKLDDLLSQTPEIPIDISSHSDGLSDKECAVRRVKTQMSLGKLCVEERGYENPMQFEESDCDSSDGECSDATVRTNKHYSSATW

Compound: CN(C[C@@H](O)Cc1ccccc1)C(=O)c1cncc(C#Cc2cnn(C(F)F)c2)c1 [Example 2, (S)-5-((1-(difluoromethyl)-1H-pyrazol-4-yl)ethynyl)-N-(2-hydroxy-3-phenylpropyl)-N-methylnicotinamide]
- remaining activity at 0.1 µM (NEK1; NEK1): 100%
- remaining activity at 0.1 µM (MAP4K5; MAP4K5): 87%
- remaining activity at 0.1 µM (VEGFR2; VEGFR2): 96%
- remaining activity at 0.1 µM (PIP5K1C; PIP5K1C): 100%
- remaining activity at 0.1 µM (LRRK2; LRRK2): 100%
- remaining activity at 0.1 µM (LOK; LOK): 100%
- remaining activity at 0.1 µM (CDK3; CDK3): 100%
- remaining activity at 0.1 µM (MET; MET): 100%
- remaining activity at 0.1 µM (CAMK1B; CAMK1B): 82%
- remaining activity at 0.1 µM (FLT3(K663Q); FLT3(K663Q)): 100%
- remaining activity at 0.1 µM (SRPK3; SRPK3): 90%
- remaining activity at 0.1 µM (PAK4; PAK4): 98%
- remaining activity at 0.1 µM (HPK1; HPK1): 78%
- remaining activity at 0.1 µM (MAP3K1; MAP3K1): 100%
- remaining activity at 0.1 µM (ABL1-phosphorylated; ABL1-phosphorylated): 79%
- remaining activity at 0.1 µM (CSK; CSK): 98%
- remaining activity at 0.1 µM (EPHA4; EPHA4): 97%
- remaining activity at 0.1 µM (SRC; SRC): 97%
- remaining activity at 0.1 µM (PRKCE; PRKCE): 72%
- remaining activity at 0.1 µM (GRK3; GRK3): 82%
- remaining activity at 0.1 µM (MKNK2; MKNK2): 82%
- remaining activity at 0.1 µM (MEK2; MEK2): 99%
- remaining activity at 0.1 µM (PRKD1; PRKD1): 100%
- remaining activity at 0.1 µM (BIKE; BIKE): 100%
- remaining activity at 0.1 µM (ALK(C1156Y); ALK(C1156Y)): 100%
- remaining activity at 0.1 µM (LRRK2(G2019S); LRRK2(G2019S)): 100%
- remaining activity at 0.1 µM (CAMKK2; CAMKK2): 99%
- remaining activity at 0.1 µM (ERK1; ERK1): 97%
- remaining activity at 0.1 µM (LZK; LZK): 99%

Compound: CN(C[C@H](Cc1ccccc1)OP(=O)(O)O)C(=O)c1cncc(C#Cc2cnn(C(F)F)c2)c1 [Example 19, (S)-1-(5-((1-(difluoromethyl)-1H-pyrazol-4-yl)ethynyl)-N-methylnicotinamido)-3-phenylpropan-2-yl dihydrogen phosphate]
- remaining activity at 0.1 µM (NEK1): 100%
- remaining activity at 0.1 µM (MAP4K5): 95%
- remaining activity at 0.1 µM (VEGFR2): 97%
- remaining activity at 0.1 µM (PIP5K1C): 85%
- remaining activity at 0.1 µM (LRRK2): 81%
- remaining activity at 0.1 µM (LOK): 100%
- remaining activity at 0.1 µM (CDK3): 100%
- remaining activity at 0.1 µM (MET): 100%
- remaining activity at 0.1 µM (CAMK1B): 83%
- remaining activity at 0.1 µM (FLT3(K663Q)): 100%
- remaining activity at 0.1 µM (SRPK3): 100%
- remaining activity at 0.1 µM (PAK4): 98%
- remaining activity at 0.1 µM (HPK1): 92%
- remaining activity at 0.1 µM (MAP3K1): 100%
- remaining activity at 0.1 µM (ABL1-phosphorylated): 78%
- remaining activity at 0.1 µM (CSK): 93%
- remaining activity at 0.1 µM (EPHA4): 96%
- remaining activity at 0.1 µM (SRC): 100%
- remaining activity at 0.1 µM (PRKCE): 68%
- remaining activity at 0.1 µM (GRK3): 81%
- remaining activity at 0.1 µM (MKNK2): 79%
- remaining activity at 0.1 µM (MEK2): 98%
- remaining activity at 0.1 µM (PRKD1): 100%
- remaining activity at 0.1 µM (BIKE): 100%
- remaining activity at 0.1 µM (ALK(C1156Y)): 100%
- remaining activity at 0.1 µM (LRRK2(G2019S)): 93%
- remaining activity at 0.1 µM (CAMKK2): 100%
- remaining activity at 0.1 µM (ERK1): 95%
- remaining activity at 0.1 µM (LZK): 99%
